Laboratory results from the supplement of paper PMC6723410.

Each compound was assayed on GUMC-403 (assay: viability at highest tested concentration (max response) relative to DMSO (% of DMSO control); higher = less cytotoxic). Conditions: library / dose series: MIPE library, 11-point 1:3 dilution; top concentration 23 µM; 48 h.
How it was run: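 In 1536-well plates, 700 GUMC-403 papilloma cells per well, taken from a patient and grown by conditional reprogramming, were seeded in 5 μL F + Y medium and incubated overnight at 37 °C. Compounds were pinned in at 23 nL in an 11-point 1:3 series, and left for 48 h before CellTiter-Glo luminescence was read on a ViewLux against vehicle (100%) and empty (0%) wells. Reported values are viability at the highest tested concentration relative to vehicle control.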

Compound `COc1cccc(Nc2c(C(N)=O)cnc3c(C)cc([S+](=O)([O-])c4cccc(C(=O)N(C)C)c4)cc23)c1` has a viability of 97.1.

Same assay, conditions: library / dose series: MIPE library, 11-point 1:3 dilution; top concentration 46.1 µM; 48 h

Compared with `CC(COc1ccccc1)N(CCCl)Cc1ccccc1` (stereo not drawn), `CN(C)C(=O)C(CCN1CCC(O)(c2ccc(Cl)cc2)CC1)(c1ccccc1)c1ccccc1` is lower in viability: 122 for the first, 103 for the second.

Compared with `CCCCc1ccc(N[S+](=O)([O-])c2ccc(C)c(C(=O)N3CCN(c4cccc(C)c4C)CC3)c2)cc1`, `Cc1cnc(Nc2ccc(CN3CCOCC3)cc2)nc1Nc1cccc([S+](=O)([O-])NC(C)(C)C)c1` is lower in viability: 111 for the first, 31.1 for the second.

Going from `O=C1CC[C@@]2(O)[C@H]3Cc4ccc(O)c5c4[C@@]2(CCN3CC2CC2)[C@H]1O5` to `OC(=O)\C1=C\N(C2CC2)C3=CC(=C(F)C=C3C1=O)N4CCNCC4`, the viability falls from 137 to 105.

Going from `CC(C)OC(=O)C(C(=O)OC(C)C)=C1S\C=C/S1` to `CC(C)OC(=O)CCC/C=C\C[C@@H]1[C@@H](/C=C/[C@@H](O)COc2cccc(C(F)(F)F)c2)[C@H](O)C[C@@H]1O`, the viability rises from 104 to 118.

Going from `C[C@H]1[C@@H](CC(C[C@H]2O[C@@H]3O[C@]4(C)CC[C@H]5[C@H](C)CC[C@@H]([C@H]2C)[C@@]35OO4)C[S+](=O)([O-])c2ccc(COC(=O)N(C)C)cc2)O[C@@H]2O[C@]3(C)CC[C@H]4[C@H](C)CC[C@@H]1[C@@]24OO3` to `C[C@H]1C[C@@H]2[C@H](CC[C@@]3(C)[C@H]2CC[C@]3(OC(C)=O)C(C)=O)[C@@]\4(C)CCC(=O)\C=C14`, the viability rises from 104 to 147.

Going from `CN(C(Cc1ccc(O[S+](=O)([O-])c2cccc3cnccc23)cc1)C(=O)N1CCN(c2ccccc2)CC1)[S+](=O)([O-])c1cccc2cnccc12` (stereo not drawn) to `CN(c1nccc(=O)[nH]1)C1CCN(c2nc3ccccc3n2Cc2ccc(F)cc2)CC1`, the viability rises from 83.2 to 97.4.

First: COc1ccc2cc([C@H](C)C(=O)O)ccc2c1
Second: CCCCOc1ccc(CC(=O)NO)cc1
The viability of the first is lower: 97.3 for the first, 109 for the second.

Compared with `c1coc(CNc2ncnc3nc[nH]c23)c1`, `Nc1ccc([S+](=O)([O-])Nc2ccnn2-c2ccccc2)cc1` is higher in viability: 108 for the first, 133 for the second.

Compared with `C=CCc1cccc(/C=N/NC(=O)CN2CCN(Cc3ccccc3)CC2)c1O`, `CC(C)(C)NC(=O)[C@@H]1CN(Cc2cccnc2)CCN1C[C@@H](O)C[C@@H](Cc1ccccc1)C(=O)N[C@H]1c2ccccc2C[C@H]1O.O=S(=O)(O)O` is higher in viability: 73.5 for the first, 130 for the second.

Going from `CNC(=O)c1cc(Oc2ccc(NC(=O)Nc3cc(C(C)(C)C)nn3-c3ccc4ncccc4c3)c(F)c2)ccn1` to `COc1cc(C)c(Sc2cnc(NC(=O)c3ccc(CNC(C)C(C)(C)C)cc3)s2)cc1C(=O)N1CCN(C(C)=O)CC1` (stereo not drawn), the viability falls from 83.8 to 71.7.

Going from `NC(=O)N/N=C/c1ccc([N+](=O)[O-])o1` to `CCCCc1nc2cc(/C=C/C(=O)NO)ccc2n1CCN(CC)CC`, the viability falls from 135 to 67.2.

First: CCCC1OC2C[C@H]3[C@@H]4CCC5=CC(=O)C=C[C@]5(C)[C@H]4C(O)C[C@]3(C)[C@]2(C(=O)CO)O1 (stereo partly drawn)
Second: CC(O)C1C2C(C)\C(=C(/N2C1=O)C(O)=O)SC3CNC(C3)C(=O)N(C)C (stereo not drawn)
The viability of the first is higher: 121 for the first, 115 for the second.

First: CN(C)C(=N)NC(=N)N
Second: COc1cc(OC)c(/C=C/[S+](=O)([O-])Cc2ccc(OC)c(NCC(=O)[O][Na])c2)c(OC)c1
The viability of the first is higher: 122 for the first, 118 for the second.

First: OC1=CC=C(C=C1)\C2=C\OC3=C(C=CC(=C3)O)C2=O
Second: Cn1ccc2cc3c(cc21)CCN3C(=O)Nc1cccnc1
The viability of the first is higher: 133 for the first, 126 for the second.

Going from `COC1(C[S+]([O-])c2ccccc2)CCN(CCc2c[nH]c3ccc(F)cc23)CC1` (stereo not drawn) to `COc1cc2nc(N3CCN(C(=O)C4CCCO4)CC3)nc(N)c2cc1OC` (stereo not drawn), the viability rises from 101 to 126.

`COC1=CC2=C(C=C1OC)[C@H]3[C@@H](CO2)OC4=C(C=CC5=C4\C=C/C(C)(C)O5)C3=O` gave a viability of 115.

Same assay, conditions: library / dose series: MIPE library, 11-point 1:3 dilution; top concentration 92.2 µM; 48 h

`S=C(NCc1ccc2c(c1)OCO2)N1CCN(c2ncnc3c2oc2ccccc23)CC1` was tested, and the viability was 100.
